Experimental data: ChEMBL document CHEMBL3769406, “A phenotypic drug discovery study on thienodiazepine derivatives as inhibitors of T cell proliferation induced by CD28 co-stimulation leads to the discovery of a first bromodomain inhibitor” (Bioorg Med Chem Lett, 2016)
The source made the active and inactive calls. The calls are words filed in the database; no cut-off is given here.

Key:
[1] = Immunosuppressive activity in BALB/c mouse splenic T cells assessed as inhibition of PMA/CD28 induced cell proliferation after 24 hrs by [methyl-3H]thymidine incorporation assay; type: functional, cell-based
[2] = target: Bromodomain-containing protein 2 (Homo sapiens) (UniProt P25440); experiment: (§1) Competitive inhibition of BRD2 in PMA /ionomycin activated human Jurkat cell lysate in presence of (S)-4-{3'-Cyano-4'-[3-(3-{2-[5-((3aR,6S,6aS)-2-oxo-hexahydro-thieno[3,4-d]imidazol-6-yl)-pentanoylamino]-ethyldisulfanyl}-propionylamino)-propoxy]-biphenyl-4-yl}-2,3,9-trimethyl-6H-1-thia-5,7,8,9a-tetraaza-cyclopenta[e]azulene-6-yl]acetic acid ethyl ester/avidin-resin by pull down assay; type: cell-based
Chain of Bromodomain-containing protein 2 (Homo sapiens) (P25440 whole entry, looked up): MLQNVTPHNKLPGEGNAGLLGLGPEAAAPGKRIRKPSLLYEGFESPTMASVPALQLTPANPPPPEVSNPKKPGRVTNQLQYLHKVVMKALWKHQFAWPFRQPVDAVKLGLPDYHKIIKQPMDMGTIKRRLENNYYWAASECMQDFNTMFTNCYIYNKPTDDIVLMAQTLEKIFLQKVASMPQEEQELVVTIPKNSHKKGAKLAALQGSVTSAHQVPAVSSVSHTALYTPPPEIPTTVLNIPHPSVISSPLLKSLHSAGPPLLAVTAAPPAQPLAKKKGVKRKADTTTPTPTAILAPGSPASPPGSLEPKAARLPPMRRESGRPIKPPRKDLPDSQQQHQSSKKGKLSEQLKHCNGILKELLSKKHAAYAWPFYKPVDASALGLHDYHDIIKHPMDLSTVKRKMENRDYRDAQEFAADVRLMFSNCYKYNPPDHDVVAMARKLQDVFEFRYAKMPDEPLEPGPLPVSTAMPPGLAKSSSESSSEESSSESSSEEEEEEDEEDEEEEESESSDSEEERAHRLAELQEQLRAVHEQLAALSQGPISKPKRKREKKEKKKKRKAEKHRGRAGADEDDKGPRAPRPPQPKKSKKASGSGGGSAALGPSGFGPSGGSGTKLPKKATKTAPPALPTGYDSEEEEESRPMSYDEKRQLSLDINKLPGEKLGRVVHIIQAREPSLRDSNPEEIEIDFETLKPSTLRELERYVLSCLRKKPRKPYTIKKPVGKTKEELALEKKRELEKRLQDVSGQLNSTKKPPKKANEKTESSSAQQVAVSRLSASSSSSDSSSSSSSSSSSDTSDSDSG

[3] = target: Bromodomain-containing protein 3 (Homo sapiens) (UniProt Q15059); experiment: as §1, with “BRD3” for “BRD2”; type: cell-based
Chain of Bromodomain-containing protein 3 (Homo sapiens) (Q15059 2-726 limits assumed): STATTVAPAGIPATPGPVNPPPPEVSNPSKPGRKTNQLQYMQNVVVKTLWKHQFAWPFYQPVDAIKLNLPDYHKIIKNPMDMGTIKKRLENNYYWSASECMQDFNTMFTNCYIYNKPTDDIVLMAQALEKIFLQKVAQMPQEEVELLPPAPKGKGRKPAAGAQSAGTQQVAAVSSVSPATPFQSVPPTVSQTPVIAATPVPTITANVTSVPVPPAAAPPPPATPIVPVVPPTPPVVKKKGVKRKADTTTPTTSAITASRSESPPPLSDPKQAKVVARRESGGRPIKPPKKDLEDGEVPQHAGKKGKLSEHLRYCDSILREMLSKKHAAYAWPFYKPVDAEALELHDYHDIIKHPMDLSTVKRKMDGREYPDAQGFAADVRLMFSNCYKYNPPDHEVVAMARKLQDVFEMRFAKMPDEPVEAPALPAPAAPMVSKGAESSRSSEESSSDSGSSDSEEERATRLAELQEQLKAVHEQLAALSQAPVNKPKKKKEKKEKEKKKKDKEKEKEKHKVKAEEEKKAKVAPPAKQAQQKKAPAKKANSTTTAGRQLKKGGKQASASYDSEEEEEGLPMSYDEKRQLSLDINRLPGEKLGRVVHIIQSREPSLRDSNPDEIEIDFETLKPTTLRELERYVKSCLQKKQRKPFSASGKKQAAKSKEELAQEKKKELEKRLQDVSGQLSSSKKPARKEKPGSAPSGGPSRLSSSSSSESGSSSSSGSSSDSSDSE

[4] = target: T1, Bromodomain-containing protein 4 (Homo sapiens, UniProt O60885); experiment: as §1, with “BRD4” for “BRD2”; type: cell-based
[5] = Cytotoxicity against mouse M1 cells after 72 hrs by WST-8 assay; type: functional; conditions: M1, 72 h
[6] = Cytotoxicity against human HL60 cells after 72 hrs by WST-8 assay; type: functional; conditions: HL-60, 72 h
A2780 = experiment: Cytotoxicity against human A2780 cells after 72 hrs by WST-8 assay; type: functional; conditions: A2780, 72 h
[7] = Cytotoxicity against human SKOV3 cells after 72 hrs by WST-8 assay; type: functional; conditions: SK-OV-3, 72 h
Mus musculus = experiment: Immunosuppressive activity in collagen-induced DBA/1J mouse arthritis model at 0.3 to 1 mg/kg, po administered for […] of immunization with bovine type II collagen measured at 21 to 42 days after primary immunization; type: functional, organism-based
[8] = target: T1, Bromodomain-containing protein 4; experiment: Inhibition of Flag-tagged BRD4 (unknown origin)-biotinylated AcH4 (Lys5, 8, 12, 16) histone peptide binding expressed in CHO cells after 60 mins by TR-FRET assay; type: cell-based
[9] = target: Bromodomain-containing protein 3 (Homo sapiens) (UniProt Q15059); experiment: Inhibition of Flag-tagged BRD3 (unknown origin)-biotinylated AcH4 (Lys5, 8, 12, 16) histone peptide binding expressed in CHO cells after 60 mins by TR-FRET assay; type: cell-based
[10] = target: Bromodomain-containing protein 2 (Homo sapiens) (UniProt P25440); experiment: Inhibition of Flag-tagged BRD2 (unknown origin)-biotinylated AcH4 (Lys5, 8, 12, 16) histone peptide binding expressed in CHO cells after 60 mins by TR-FRET assay; type: cell-based
[11] = Cytotoxicity against human MV411 cells after 72 hrs by WST-8 assay; type: functional; conditions: MV4-11, 72 h
Daudi = experiment: Cytotoxicity against human Daudi cells after 72 hrs by WST-8 assay; type: functional
[12] = Cytotoxicity against human U937 cells after 72 hrs by WST-8 assay; type: functional; conditions: U-937, 72 h
[13] = Cytotoxicity against human RPMI8226 cells after 72 hrs by WST-8 assay; type: functional; conditions: RPMI-8226, 72 h
B16 = experiment: Cytotoxicity against mouse B16 cells after 72 hrs by WST-8 assay; type: functional; conditions: B16, 72 h
[14] = Cytotoxicity against human KIM1 cells after 72 hrs by WST-8 assay; type: functional; conditions: KIM1, 72 h
LNCaP = experiment: Cytotoxicity against human LNCAP cells after 72 hrs by WST-8 assay; type: functional
[15] = Cytotoxicity against human EBC1 cells after 72 hrs by WST-8 assay; type: functional; conditions: EBC-1, 72 h
A549 = experiment: Cytotoxicity against human A549 cells after 72 hrs by WST-8 assay; type: functional; conditions: A549, 72 h
[16] = Cytotoxicity against human LN18 cells after 72 hrs by WST-8 assay; type: functional; conditions: LN-18, 72 h
[17] = Cytotoxicity against human U87MG cells after 72 hrs by WST-8 assay; type: functional, U-87MG ATCC; conditions: U-87 MG
HeLa = experiment: Cytotoxicity against human HeLa cells after 72 hrs by WST-8 assay; type: functional
[18] = Cytotoxicity against human COLO205 cells after 72 hrs by WST-8 assay; type: functional; conditions: COLO 205, 72 h
[19] = Cytotoxicity against mouse LLC cells after 72 hrs by WST-8 assay; type: functional; conditions: Lewis lung carcinoma
[20] = Antitumor activity against human HL60 cells xenografted in nude mouse assessed as inhibition of relative tumor growth at 10 mg/kg, po qd administered for 14 days; type: functional; conditions: HL-60, po, 336 h, read-out: TGI
[21] = Antitumor activity against human HL60 cells xenografted in nude mouse assessed as inhibition of relative tumor growth at 30 mg/kg, po qd administered for 14 days; type: functional; conditions: HL-60, po, 336 h, read-out: TGI
[22] = Antitumor activity against human HL60 cells xenografted in nude mouse assessed as inhibition of relative tumor growth at 10 mg/kg, po bid administered for 14 days; type: functional; conditions: HL-60, po, 336 h, read-out: TGI

For `CCC1N=C(c2ccc(Cl)cc2)c2c(sc(C)c2C)-n2c(C)nnc21` (racemic), the IC50 [1] was 340 nM.

`COC(=O)C[C@@H]1N=C(c2ccc(-c3cccc(C(C)=O)c3)cc2)c2c(sc(C)c2C)-n2c(C)nnc21` showed an IC50 [1] of 15 nM.

In the case of `COC(=O)C[C@@H]1N=C(c2ccc(-c3ccc(O)c(C#N)c3)cc2)c2c(sc(C)c2C)-n2c(C)nnc21`, the IC50 [1] is reported as 2.5 nM.

Work on `Cc1sc2c(c1C)C(c1ccc(Cl)cc1)=N[C@@H](CCC#N)c1nnc(C)n1-2` yielded an IC50 [1] of 100 nM.

`Cc1sc2c(c1C)C(c1ccc(Cl)cc1)=NC(Cc1cccnc1)c1nnc(C)n1-2` (racemic) showed an IC50 [1] of 400 nM.

Work on `Cc1sc2c(c1C)C(c1ccc(Cl)cc1)=NCc1nnc(C)n1-2` yielded an IC50 [1] of 2500 nM.

With `COC(=O)C[C@@H]1N=C(c2ccc(-c3ccc(C#N)cc3)cc2)c2c(sc(C)c2C)-n2c(C)nnc21` the IC50 [1] was 33 nM.

`COC(=O)C[C@@H]1N=C(c2ccc(-c3cccc(O)c3)cc2)c2c(sc(C)c2C)-n2c(C)nnc21` showed an IC50 [1] of 32 nM.

For `COC(=O)C[C@H]1N=C(c2ccc(-c3cccc(C#N)c3)cc2)c2c(sc(C)c2C)-n2c(C)nnc21`, the inhibition [2] was “inactive”, the inhibition [3] was “inactive” and the inhibition [4] was “inactive”.

`Cc1sc2c(c1C)C(c1ccc(Cl)cc1)=N[C@@H](CC(=O)OCc1ccccc1)c1nnc(C)n1-2` showed an IC50 [1] of 36 nM.

`Cc1sc2c(c1C)C(c1ccc(Cl)cc1)=NC(Cc1ccccc1)c1nnc(C)n1-2` (racemic) showed an IC50 [1] of 500 nM.

Molecule `Cc1sc2c(c1C)C(c1ccc(Cl)cc1)=N[C@@H](CC(=O)OC(C)C)c1nnc(C)n1-2` has an IC50 [1] of 44 nM.

`Cc1sc2c(c1C)C(c1ccc(Cl)cc1)=N[C@@H](CCO)c1nnc(C)n1-2` showed an IC50 [1] of 580 nM.

Work on `COC(=O)C[C@@H]1N=C(c2ccc(-c3cccc(NC(C)=O)c3)cc2)c2c(sc(C)c2C)-n2c(C)nnc21` yielded an IC50 [1] of 27 nM.

In the case of `COCC[C@@H]1N=C(c2ccc(Cl)cc2)c2c(sc(C)c2C)-n2c(C)nnc21`, the IC50 [1] is reported as 390 nM.

With `CCCOC(=O)C[C@@H]1N=C(c2ccc(Cl)cc2)c2c(sc(C)c2C)-n2c(C)nnc21` the IC50 [1] was 30 nM.

`COC(=O)C[C@@H]1N=C(c2ccc(-c3cccc(C#N)c3)cc2)c2c(sc(C)c2C)-n2c(C)nnc21` gave a GI50 [5] of 3 nM, a GI50 [6] of 7 nM and a GI50 (A2780) of 130 nM. For the same molecule, the GI50 [7] was 5270 nM, the IC50 [1] was 26 nM and the Activity (Mus musculus) was “Active”. For the same molecule, the inhibition [2] was “Dose-dependent effect”, the inhibition [3] was “Dose-dependent effect” and the inhibition [4] was “Dose-dependent effect”. The IC50 [8] was 33.9 nM, the inhibition [9] was “Active” and the inhibition [10] was “Active”. For the same molecule, the GI50 [11] was 19 nM, the GI50 (Daudi) was 67 nM and the GI50 [12] was 829 nM. The GI50 [13] was 69 nM, the GI50 (B16) was 80 nM and the GI50 [14] was 104 nM. It also gave a GI50 (LNCaP) of 201 nM, a GI50 [15] of 207 nM and a GI50 (A549) greater than 10000 nM. For the same molecule, the GI50 [16] was 207 nM, the GI50 [17] was greater than 10000 nM and the GI50 (HeLa) was 274 nM. It also gave a GI50 [18] of 484 nM, a GI50 [19] of 1500 nM and an inhibition in vivo at 10 mg/kg [20] of 43%. It also gave an inhibition in vivo at 30 mg/kg [21] of 65% and an inhibition in vivo at 10 mg/kg [22] of 80%.

In the case of `COC(=O)C[C@@H]1N=C(c2ccc(Cl)cc2)c2c(sc(C)c2C)-n2c(C)nnc21`, the IC50 [1] is reported as 38 nM.

In the case of `Cc1sc2c(c1C)C(c1ccc(Cl)cc1)=NC(Cc1ccccn1)c1nnc(C)n1-2` (racemic), the IC50 [1] is reported as 330 nM.

`COC(=O)C[C@@H]1N=C(c2ccc(-c3ccc(OC)cc3)cc2)c2c(sc(C)c2C)-n2c(C)nnc21` showed an IC50 [1] of 53 nM.

Work on `Cc1sc2c(c1C)C(c1ccc(Cl)cc1)=N[C@@H](CC(=O)OC(C)(C)C)c1nnc(C)n1-2` yielded an IC50 [1] of 110 nM.

Molecule `COC(=O)C[C@@H]1N=C(c2ccc(-c3cccc(OC(F)(F)F)c3)cc2)c2c(sc(C)c2C)-n2c(C)nnc21` has an IC50 [1] of 160 nM.

In the case of `Cc1sc2c(c1C)C(c1ccc(Cl)cc1)=NC(C)c1nnc(C)n1-2` (racemic), the IC50 [1] is reported as 390 nM.

For `COC(=O)C[C@@H]1N=C(c2ccc(-c3cccc(S(C)(=O)=O)c3)cc2)c2c(sc(C)c2C)-n2c(C)nnc21`, the IC50 [1] was 9.8 nM.

`Cc1sc2c(c1C)C(c1ccc(Cl)cc1)=NC(CCc1ccccc1)c1nnc(C)n1-2` (racemic) showed an IC50 [1] of 2680 nM.

`Cc1sc2c(c1C)C(c1ccc(Cl)cc1)=NC(Cc1ccncc1)c1nnc(C)n1-2` (racemic) gave an IC50 [1] of 240 nM.

Molecule `COC(=O)C[C@@H]1N=C(c2ccc(-c3ccccc3C#N)cc2)c2c(sc(C)c2C)-n2c(C)nnc21` has an IC50 [1] of 180 nM.

For `COC(=O)C[C@H]1N=C(c2ccc(Cl)cc2)c2c(sc(C)c2C)-n2c(C)nnc21`, the IC50 [1] was greater than 10000 nM.

Molecule `COC(=O)CC1N=C(c2ccc(-c3ccccc3)cc2)c2c(sc(C)c2C)-n2c(C)nnc21` (racemic) has an IC50 [1] of 220 nM.

For `COC(=O)C[C@@H]1N=C(c2ccc(-c3ccccc3OC)cc2)c2c(sc(C)c2C)-n2c(C)nnc21`, the IC50 [1] was 190 nM.

Molecule `COC(=O)C[C@@H]1N=C(c2ccc(-c3cccc(OC)c3)cc2)c2c(sc(C)c2C)-n2c(C)nnc21` has an IC50 [1] of 36 nM.

With `CCOC(=O)C[C@@H]1N=C(c2ccc(Cl)cc2)c2c(sc(C)c2C)-n2c(C)nnc21` the IC50 [1] was 12 nM.
